Where two headings read alike, the source gives them in different places.
Tests used:
[1] = for ϕ (quantum yield): pH 7.4
[2] = KL-Z lactone-zwitterion equilibrium; assay type: physicochemical; settings: 1:1 v/v dioxane:water
[3] = literature values; cited from earlier work
[4] = tested on: HaloTag®-GFP-expressing HeLa cells; test: No-wash live cell imaging of HaloTag-expressing cells with a Si-bridge dye; assay type: cell-based; settings: 200 nM dye, 15 min, 37° C., HeLa transfected with pHaloTag®-EGFP
Procedure: HeLa cells were seeded in 35 mm glass bottom dishes (Cellvis, catalog no. D35-28-O—N), and transfected with pHaloTag®-EGFP (Addgene #86629). Transient transfections were performed using Lipofectamine 2000 (Invitrogen, catalog no. 1168019) following the manufacturer's instructions. HeLa cell labeling and confocal imaging were performed 24 hr after transfection.
Labeling with JF646-HaloTag® ligand (Promega) and new dyes containing HaloTag® ligands were performed following the manufacturer's instructions. Briefly, cells were incubated with 200 nM dye in DMEM for 15 min at 37° C. Subsequently, images were obtained on a Leica SP-8 Confocal Microscope (SCOPE core facility, UMass Medical School), using a 40×1.15 Oil DIC objective. EGFP was excited with the Argon (488 nm) laser at a 15% intensity and detected through a 505-530 band pass filter and a pinhole set to 53.12 μm. Dyes fluorescing in the Cy5 channel were excited with the HeNe (633 nm) laser at a 15% intensity and detected through a 640-615 band pass filter and […] pinhole. Image analysis was performed using Leica LAS X SP8 software and ImageJ software.

[5] = spirolactone dyes, table title says PBS, text (b560-b564) says maximal ε when ring-opened in EtOH/0.1% TFA
[6] = spirolactone dyes, ϕ in PBS × ε in EtOH/0.1% TFA

## C=C[Si]1(C=C)c2cc(N3CCC3)ccc2C2(OC(=O)c3ccccc32)c2ccc(N3CCC3)cc21 [Compound 034, 3,7-Di(azetidin-1-yl)-5,5-divinyl-3′H,5H-spiro[dibenzo[b,e]siline-10,1′-isobenzofuran]-3′-one]
[1]; EtOH/0.1% TFA
  extinction coefficient (maximum) in EtOH/0.1% TFA: 80,000 M−1 cm−1
[1]; SDS
  Em (nm): 675 nm
  Ex (nm): 656 nm
[1]; anhydrous EtOH/0.1% TFA
  extinction coefficient in anhydrous EtOH/0.1% TFA: ~144 000 M−1 cm-1
[1]; [5]
  ε (M^−1 cm^−1): 80,000 M^−1 cm^−1
[2]
  KL-Z lactone-zwitterion equilibrium value: 0.00125

## Cc1ccccc1C1=c2cc3c(cc2[Si](C)(C)c2cc4c(cc21)CCCN4C)=[N+](C)CCC3 [Compound 016, 1,11,13,13-Tetramethyl-6-(o-tolyl)-2,3,4,8,9,10,11,13-octahydrosilino[3,2-g:5,6-g′]diquinolin-1-ium, reference compound]
[1]
  Brightness (ϕ × ε): 41,850
  Em (nm): 692 nm
  Ex (nm): 674 nm
  ε (M^−1 cm^−1): 135,000 M^−1 cm^−1
[1]; PBS
  ϕ (quantum yield): 0.31
[3]
  emission wavelength, literature value: 689 nm
  excitation wavelength, literature value: 674 nm
  ε, literature value: 1.3×10^5
  ϕ, literature value: 0.35

## Cc1ccccc1C1=C2C=CC(=[N+](C)C)C=C2[Si](C)(C)c2cc(N(C)C)ccc21 [Compound 001, N-(7-(Dimethylamino)-5,5-dimethyl-10-(o-tolyl)dibenzo[b,e]silin-3(5H)-ylidene)-N-methylmethanaminium, reference compound]
[1]; PBS
  Brightness (ϕ × ε): 43,102
  Em (nm): 663 nm
  Ex (nm): 648 nm
  ε (M^−1 cm^−1): 126,400 M^−1 cm^−1
  ϕ (quantum yield): 0.34
[3]
  emission wavelength, literature value: 658 nm
  excitation wavelength, literature value: 644 nm
  ε, literature value: 1.1×10^5
  ϕ, literature value: 0.31

## CN(C)c1ccc2c(c1)[Si@](C)(CCCSCC(=O)NCCOCCOCCCCCCCl)c1cc(N(C)C)ccc1[C@@]21OC(=O)c2ccccc21 [Compound 045, 2-((3-((5r,10r)-3,7-Bis(dimethylamino)-5-methyl-3′-oxo-3′H,5H-spiro[dibenzo[b,e]siline-10,1′-isobenzofuran]-5-yl)propyl)thio)-N-(2-(2-((6-chlorohexyl)oxy)ethoxy)ethyl)acetamide]
[4]
  fluorescence contrast / background / localisation in cells: bright high contrast images that correlated strongly to GFP expression

## CN(C)c1ccc2c(c1)[Si@](C)(CCCSCCOCCOCCOCCOCCCCCCCl)c1cc(N(C)C)ccc1[C@@]21OC(=O)c2ccccc21 [Compound 051, (5r,10r)-5-(22-Chloro-7,10,13,16-tetraoxa-4-thiadocosyl)-3,7-bis(dimethylamino)-5-methyl-3′H,5H-spiro[dibenzo[b,e]siline-10,1′-isobenzofuran]-3′-one]
[4]
  fluorescence contrast / background / localisation in cells: significant background
  labeling of HaloTag®-expressing cells: labeled HaloTag®-expressing cells

## C[Si]1(C)c2cc(N3CCC3)ccc2C2(OC(=O)c3ccccc32)c2ccc(N3CCC3)cc21 [Compound 031, 3,7-Di(azetidin-1-yl)-5,5-dimethyl-3′H,5H-spiro[dibenzo[b,e]siline-10,1′-isobenzofuran]-3′-one, reference compound]
[1]; PBS
  Em (nm): 664 nm
  Ex (nm): 646 nm
  ϕ (quantum yield): 0.45
[1]; [5]
  ε (M^−1 cm^−1): 156,000 M^−1 cm^−1
[1]; [6]
  Brightness (ϕ × ε): 70,200
[2]
  KL-Z lactone-zwitterion equilibrium value: 0.0034

## C[Si]1(C)c2cc(N3CCC3)ccc2C2(OC(=O)c3ccc(C(=O)NCCOCCOCCCCCCCl)cc32)c2ccc(N3CCC3)cc21 [JF646-HaloTag® ligand]
[4]
  fluorescence contrast / background / localisation in cells: high contrast images

## COc1cccc(OC)c1C1=C2C=CC(=[N+](C)C)C=C2[Si@](C)(CCCSCCOCCOCCOCCOCCCCCCCl)c2cc(N(C)C)ccc21 [Compound 049, N-(5-(22-Chloro-7,10,13,16-tetraoxa-4-thiadocosyl)-10-(2,6-dimethoxyphenyl)-7-(dimethylamino)-5-methyldibenzo[b,e]silin-3(5H)-ylidene)-N-methylmethanaminium]
[4]
  fluorescence contrast / background / localisation in cells: only stained mitochondria
  labeling of HaloTag®-expressing cells: did not label HaloTag®-expressing cells

## CN(C)c1ccc2c(c1)[Si@](C)(CCCSCCOCCOCCOCCOCCCCCCCl)c1cc(N(C)C)ccc1[C@]21OC(=O)c2ccccc21 [Compound 050, (5s,10s)-5-(22-Chloro-7,10,13,16-tetraoxa-4-thiadocosyl)-3,7-bis(dimethylamino)-5-methyl-3′H,5H-spiro[dibenzo[b,e]siline-10,1′-isobenzofuran]-3′-one]
[4]
  fluorescence contrast / background / localisation in cells: high background
  labeling of HaloTag®-expressing cells: did not label HaloTag®-expressing cells

## CN(C)c1ccc2c(c1)[Si](C)(C)c1cc(N(C)C)ccc1C21OC(=O)c2ccccc21 [Compound 032, 3,7-Bis(dimethylamino)-5,5-dimethyl-3′H,5H-spiro[dibenzo[b,e]siline-10,1′-isobenzofuran]-3′-one, reference compound]
[1]; PBS
  Em (nm): 667 nm
  Ex (nm): 648 nm
  ϕ (quantum yield): 0.38
[1]; [5]
  ε (M^−1 cm^−1): 130,000 M^−1 cm^−1
[1]; [6]
  Brightness (ϕ × ε): 49,400
[2]
  KL-Z lactone-zwitterion equilibrium value: 0.002

## CN(C)c1ccc2c(c1)[Si@](C)(CCCSCC(=O)NCCOCCOCCCCCCCl)c1cc(N(C)C)ccc1[C@]21OC(=O)c2ccccc21 [Compound 044, 2-((3-((5s,10s)-3,7-Bis(dimethylamino)-5-methyl-3′-oxo-3′H,5H-spiro[dibenzo[b,e]siline-10,1′-isobenzofuran]-5-yl)propyl)thio)-N-(2-(2-((6-chlorohexyl)oxy)ethoxy)ethyl)acetamide]
[4]
  fluorescence contrast / background / localisation in cells: poorly fluorescent in all cells
  labeling of HaloTag®-expressing cells: did not label HaloTag®-expressing cells

## Cc1ccccc1C1=c2cc3c(cc2[Si](C)(C)c2cc4c(cc21)CCN4C)=[N+](C)CC3 [Compound 020, 1,9,11,11-Tetramethyl-5-(o-tolyl)-2,3,7,8,9,11-hexahydrosilino[3,2-f:5,6-f]diindol-1-ium, reference compound]
[1]
  Brightness (ϕ × ε): 17,000
  Em (nm): 715 nm
  Ex (nm): 690 nm
  ε (M^−1 cm^−1): 100,000 M^−1 cm^−1
[1]; PBS
  ϕ (quantum yield): 0.17
[3]
  emission wavelength, literature value: 712 nm
  excitation wavelength, literature value: 691 nm
  ε, literature value: 1.0×10^5
  ϕ, literature value: 0.12

From patent publication US20250003877A1, “Silyl Bridged Dyes” (priority 2021, published 2025)
